Assay results reported in ChEMBL document CHEMBL5331062, “2,6-Difluorobenzamide derivatives as store-operated calcium channel (SOC) inhibitors” (Eur J Med Chem, 2022).
Activity calls are given as the source filed them. The calls are words filed in the database; no cut-off is given here.

What was measured:
[1] = system: Caco-2; experiment: Inhibition of SOC activity in human Caco-2 cells at 1 uM induced by thapsigargin for 5 mins followed by Ca2+ […] addition and measured after 5 mins after compound addition by Ca2+ imaging method; assay type: cell-based
[2] = system: Caco-2; experiment: Inhibition of cell migration in human Caco-2 cells assessed as reduction in cell motility at 1 uM measured after 24 hrs by wound healing assay; assay type: functional, cell-based
[3] = Clearance in Sprague-Dawley rat at 2 mg/kg, iv measured upto 24 hrs by LC-MS/MS analysis; assay type: ADME, organism-based; settings: in vivo
[4] = Volume of distribution at steady state in Sprague-Dawley rat at 2 mg/kg, iv measured upto 24 hrs by LC-MS/MS analysis; assay type: ADME, organism-based; settings: in vivo, read-out: Vdss
[5] = Half life in Sprague-Dawley rat at 2 mg/kg, iv measured upto 24 hrs by LC-MS/MS analysis; assay type: ADME, organism-based; settings: in vivo
[6] = Half life in Sprague-Dawley rat at 20 mg/kg, po measured upto 24 hrs by LC-MS/MS analysis; assay type: ADME, organism-based; settings: in vivo
[7] = AUC (0 to infinity) in Sprague-Dawley rat at 2 mg/kg, iv measured upto 24 hrs by LC-MS/MS analysis; assay type: ADME, organism-based; parameters: dose 2 mg/kg, time < 24 hrs, route iv; settings: in vivo
[8] = AUC (0 to infinity) in Sprague-Dawley rat at 20 mg/kg, po measured upto 24 hrs by LC-MS/MS analysis; assay type: ADME, organism-based; parameters: dose 20 mg/kg, time < 24 hrs, route po; settings: in vivo
[9] = Tmax in Sprague-Dawley rat at 20 mg/kg, po measured upto 24 hrs by LC-MS/MS analysis; assay type: ADME, organism-based; settings: in vivo
[10] = Cmax in Sprague-Dawley rat at 20 mg/kg, po measured upto 24 hrs by LC-MS/MS analysis; assay type: ADME, organism-based; parameters: dose 20 mg/kg, time < 24 hrs, route po; settings: in vivo
[11] = Oral bioavailability in Sprague-Dawley rat at 20 mg/kg measured upto 24 hrs by LC-MS/MS analysis; assay type: ADME, organism-based; settings: in vivo
[12] = system: Caco-2; experiment: Antiproliferative activity against human Caco-2 cells assessed as reduction in cell growth incubated for 24 hrs by WST-8 cell proliferation assay; assay type: functional, cell-based
[13] = system: Caco-2; experiment: Inhibition of SOC activity in human Caco-2 cells co-transfected with STIM1-YFP/Orai1-mCherry assessed as reduction in thapsigargin induced STIM1-Orai1 interaction at 1 uM preincubated with compound for 30 mins followed by thapsigargin induction by time-lapse TIRF-FRET assay; assay type: cell-based
[14] = system: Caco-2; experiment: Inhibition of SOC activity in human Caco-2 cells co-transfected with STIM1-YFP/Orai1-mCherry assessed as reduction in thapsigargin induced STIM1-Orai1 interaction at 1 uM preincubated with thapsigargin for 2 mins followed by compound treatment by calcium influx assay; assay type: cell-based
[15] = system: Caco-2; experiment: Inhibition of cell invasion in human Caco-2 cells assessed as suppression of cell growth at 1 uM measured after 48 hrs by crystal violet staining based analysis; assay type: functional
[16] = system: Caco-2; experiment: Inhibition of cell migration in human Caco-2 cells assessed as suppression of cell growth at 1 uM measured after 48 hrs by transwell migration assay; assay type: functional, cell-based
[17] = system: Caco-2; experiment: Inhibition of SOC activity in human Caco-2 cells assessed as stabilization of STIM1-EB1 complex by immunoprecipitation-Western blot analysis; assay type: cell-based
[18] = system: Caco-2; experiment: Inhibition of SOC activity in human Caco-2 cells co-transfected with STIM1-YFP/Orai1-mCherry assessed as reduction in thapsigargin induced STIM1-Orai1 interaction at 1 uM preincubated with thapsigargin for 2 mins followed by compound treatment by time-lapse TIRF-FRET assay; assay type: cell-based

clearance [3] [mL/min/kg]	Vd [4] [L/kg]	half-life [5] [h]	half-life [6] [h]	AUC(0-inf) [7] [ng·h/mL]	AUC(0-inf) [8] [ng·h/mL]	Tmax [9] [h]	Cmax [10] [ng/mL]	bioavailability [11] [%]	SMILES	inhibition [1]	inhibition [2]	Activity [12]	inhibition [13]	inhibition [14]	further results
									COc1ccc(-c2ccc(NC(=O)c3c(F)cccc3F)nc2)cc1OC	Active					
									O=C(Nc1ccc(-c2cccc(Cl)c2)cn1)c1c(F)cccc1F		Active				
34.4	2.4	5.2	2.5	969	2000	3.3	257	20.6	COc1ccc(OC)c(-c2ccc(NC(=O)c3ccncc3F)cc2)c1			inactive	Active	Active	
									O=C(Nc1ccc(-c2ccco2)cn1)c1c(F)cccc1F	Active	Active				
2.4	3.9	24	16	15900	54000	6	2160	34	O=C(Nc1ccc(-c2ccc(F)cc2)cn1)c1c(F)cccc1F	Active	Active	inactive	Active	Active	inhibition [15]: Active; inhibition [16]: Active; inhibition [17]: Active; inhibition [18]: Active
									O=C(Nc1ccc(NC(=O)c2c(F)cccc2F)cc1)c1cncc(F)c1	Active					
